Reference: PubChem BioAssay (NCI)
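Method: 48-hour compound exposure of cells in 96-well plates, five concentrations, linear interpolation of endpoints. The concentration for 50% growth inhibition is given as GI50. TGI is the concentration that stops growth completely.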

Tests used:
Assay in all cases: growth of human tumour cells (NCI), 48 h
786-0 renal = test system: 786-0 renal
A498 renal = test system: A498 renal
BT-549 breast = test system: BT-549 breast
CAKI-1 renal = test system: CAKI-1 renal
CCRF-CEM leukemia = test system: CCRF-CEM leukemia
COLO 205 colon = test system: COLO 205 colon
DU-145 prostate = test system: DU-145 prostate
EKVX NSCLC = test system: EKVX NSCLC
HCC-2998 colon = test system: HCC-2998 colon
HCT-116 colon = test system: HCT-116 colon
HL-60(TB) leukemia = test system: HL-60(TB) leukemia
HOP-62 NSCLC = test system: HOP-62 NSCLC
HS 578T breast = test system: HS 578T breast
HT29 colon = test system: HT29 colon
IGROV1 ovarian = test system: IGROV1 ovarian
K-562 leukemia = test system: K-562 leukemia
KM12 colon = test system: KM12 colon
M14 melanoma = test system: M14 melanoma
MCF7 breast = test system: MCF7 breast
MDA-MB-231 breast = test system: MDA-MB-231 breast
MDA-MB-435 = test system: MDA-MB-435
MOLT-4 leukemia = test system: MOLT-4 leukemia
NCI-H226 lung = test system: NCI-H226 lung
NCI-H23 lung = test system: NCI-H23 lung
NCI-H460 lung = test system: NCI-H460 lung
NCI-H522 lung = test system: NCI-H522 lung
NCI/ADR-RES ovarian = test system: NCI/ADR-RES ovarian
OVCAR-3 ovarian = test system: OVCAR-3 ovarian
OVCAR-4 ovarian = test system: OVCAR-4 ovarian
OVCAR-5 ovarian = test system: OVCAR-5 ovarian
PC-3 prostate = test system: PC-3 prostate
RPMI-8226 leukemia = test system: RPMI-8226 leukemia
SF-268 CNS = test system: SF-268 CNS
SF-295 CNS = test system: SF-295 CNS
SF-539 CNS = test system: SF-539 CNS
SK-MEL-2 melanoma = test system: SK-MEL-2 melanoma
SK-MEL-28 melanoma = test system: SK-MEL-28 melanoma
SK-MEL-5 melanoma = test system: SK-MEL-5 melanoma
SK-OV-3 ovarian = test system: SK-OV-3 ovarian
SN12C renal = test system: SN12C renal
SNB-19 CNS = test system: SNB-19 CNS
SNB-75 CNS = test system: SNB-75 CNS
SR leukemia = test system: SR leukemia
SW-620 colon = test system: SW-620 colon
T-47D breast = test system: T-47D breast
TK-10 renal = test system: TK-10 renal
UACC-257 melanoma = test system: UACC-257 melanoma
UACC-62 melanoma = test system: UACC-62 melanoma
UO-31 renal = test system: UO-31 renal

`COc1cc2c(c(OC)c1OC)C(=O)c1c-2n(CCCN)c(=O)c2cc([N+](=O)[O-])ccc12` was tested, and the GI50 (786-0 renal) was 0.481 µM, the TGI (786-0 renal) was 1.04 µM and the GI50 (A498 renal) was 1.41 µM. For the same compound, the TGI (A498 renal) was 2.99 µM, the GI50 (BT-549 breast) was 1.76 µM and the TGI (BT-549 breast) was 3.53 µM. For the same compound, the GI50 (CAKI-1 renal) was 0.535 µM, the TGI (CAKI-1 renal) was 2.24 µM and the GI50 (CCRF-CEM leukemia) was 0.285 µM. It also gave a TGI (CCRF-CEM leukemia) of 0.834 µM, a GI50 (COLO 205 colon) of 1.22 µM and a TGI (COLO 205 colon) of 6.3 µM. The GI50 (DU-145 prostate) was 0.962 µM, the TGI (DU-145 prostate) was 2.31 µM and the GI50 (EKVX NSCLC) was 3.02 µM. It also gave a TGI (EKVX NSCLC) of 8.32 µM, a GI50 (HCC-2998 colon) of 0.299 µM and a TGI (HCC-2998 colon) of 0.804 µM. It also gave a GI50 (HCT-116 colon) of 0.128 µM, a TGI (HCT-116 colon) of 0.274 µM and a GI50 (HL-60(TB) leukemia) of 4.5 µM. The TGI (HL-60(TB) leukemia) was 10.9 µM, the GI50 (HOP-62 NSCLC) was 0.958 µM and the TGI (HOP-62 NSCLC) was 2.6 µM. For the same compound, the GI50 (HS 578T breast) was 2 µM, the TGI (HS 578T breast) was 4.99 µM and the GI50 (HT29 colon) was 0.301 µM. For the same compound, the GI50 (IGROV1 ovarian) was 1.43 µM, the TGI (IGROV1 ovarian) was 3.05 µM and the GI50 (K-562 leukemia) was 2.86 µM. It also gave a TGI (K-562 leukemia) of 7.98 µM, a GI50 (KM12 colon) of 0.161 µM and a TGI (KM12 colon) of 0.369 µM. For the same compound, the GI50 (M14 melanoma) was 1.35 µM, the TGI (M14 melanoma) was 2.82 µM and the GI50 (MCF7 breast) was 0.25 µM. For the same compound, the GI50 (MDA-MB-231 breast) was 1.8 µM, the TGI (MDA-MB-231 breast) was 4 µM and the GI50 (MDA-MB-435) was 1.07 µM. For the same compound, the TGI (MDA-MB-435) was 2.4 µM, the GI50 (MOLT-4 leukemia) was 8.08 µM and the TGI (MOLT-4 leukemia) was 19.1 µM. The GI50 (NCI-H226 lung) was 19 µM, the TGI (NCI-H226 lung) was 40.1 µM and the GI50 (NCI-H23 lung) was 1.52 µM. For the same compound, the TGI (NCI-H23 lung) was 3.81 µM, the GI50 (NCI-H460 lung) was 0.562 µM and the GI50 (NCI-H522 lung) was 5.79 µM. The TGI (NCI-H522 lung) was 14 µM, the GI50 (NCI/ADR-RES ovarian) was 2.03 µM and the TGI (NCI/ADR-RES ovarian) was 9.98 µM. The GI50 (OVCAR-3 ovarian) was 1.06 µM, the TGI (OVCAR-3 ovarian) was 2.4 µM and the GI50 (OVCAR-4 ovarian) was 0.372 µM. For the same compound, the TGI (OVCAR-4 ovarian) was 1.47 µM, the GI50 (OVCAR-5 ovarian) was 1.61 µM and the TGI (OVCAR-5 ovarian) was 3.04 µM. It also gave a GI50 (PC-3 prostate) of 0.736 µM, a TGI (PC-3 prostate) of 3.43 µM and a GI50 (RPMI-8226 leukemia) of 1.21 µM. The TGI (RPMI-8226 leukemia) was 3.32 µM, the GI50 (SF-268 CNS) was 0.364 µM and the TGI (SF-268 CNS) was 1.95 µM. It also gave a GI50 (SF-295 CNS) of 1.64 µM, a TGI (SF-295 CNS) of 3.39 µM and a GI50 (SF-539 CNS) of 0.55 µM. It also gave a TGI (SF-539 CNS) of 1.16 µM, a GI50 (SK-MEL-2 melanoma) of 5.45 µM and a TGI (SK-MEL-2 melanoma) of 11.6 µM. For the same compound, the GI50 (SK-MEL-28 melanoma) was 1.76 µM, the TGI (SK-MEL-28 melanoma) was 3.97 µM and the GI50 (SK-MEL-5 melanoma) was 1.53 µM. The TGI (SK-MEL-5 melanoma) was 3.24 µM, the GI50 (SK-OV-3 ovarian) was 1.95 µM and the TGI (SK-OV-3 ovarian) was 4 µM. For the same compound, the GI50 (SN12C renal) was 5.11 µM, the TGI (SN12C renal) was 13.6 µM and the GI50 (SNB-19 CNS) was 1.5 µM. It also gave a TGI (SNB-19 CNS) of 5.15 µM, a GI50 (SNB-75 CNS) of 1.41 µM and a TGI (SNB-75 CNS) of 3.31 µM. For the same compound, the GI50 (SR leukemia) was 2.41 µM, the TGI (SR leukemia) was 5.44 µM and the GI50 (SW-620 colon) was 0.31 µM. For the same compound, the TGI (SW-620 colon) was 3.3 µM, the GI50 (T-47D breast) was 2.48 µM and the TGI (T-47D breast) was 6.91 µM. It also gave a GI50 (TK-10 renal) of 0.616 µM, a TGI (TK-10 renal) of 1.3 µM and a GI50 (UACC-257 melanoma) of 5.18 µM. The TGI (UACC-257 melanoma) was 12.2 µM, the GI50 (UACC-62 melanoma) was 9.16 µM and the TGI (UACC-62 melanoma) was 24.2 µM. The GI50 (UO-31 renal) was 1.89 µM and the TGI (UO-31 renal) was 3.57 µM.
